What all share (assay type): cell-based
Assay [1] concerns the target Substance-P receptor (Homo sapiens, UniProt P25103). Briefly: Binding affinity against recombinant human tachykinin receptor 1 in CHO cells using [3H]-Sar SP as radioligand.
The target of assay [2] is T1, Neuromedin-K receptor (Homo sapiens, UniProt P29371).
T1 sequence (P29371 whole entry): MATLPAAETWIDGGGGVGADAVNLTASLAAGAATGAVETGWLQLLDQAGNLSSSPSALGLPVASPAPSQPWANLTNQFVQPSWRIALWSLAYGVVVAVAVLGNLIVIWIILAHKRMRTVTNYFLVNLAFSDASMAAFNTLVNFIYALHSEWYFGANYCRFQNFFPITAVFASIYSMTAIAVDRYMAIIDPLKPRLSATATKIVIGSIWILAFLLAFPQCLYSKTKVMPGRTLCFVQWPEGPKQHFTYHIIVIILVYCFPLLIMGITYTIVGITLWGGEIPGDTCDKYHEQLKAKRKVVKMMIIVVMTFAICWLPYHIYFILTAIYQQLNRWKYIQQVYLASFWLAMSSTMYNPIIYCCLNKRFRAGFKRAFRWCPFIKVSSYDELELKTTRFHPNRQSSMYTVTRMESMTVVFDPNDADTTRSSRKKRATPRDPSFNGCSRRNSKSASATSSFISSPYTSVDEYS
The assay can be described thus: Binding affinity against recombinant human tachykinin receptor 3 in CHO cells using [125I][MePhe]-NKB as radioligand.

For assay [3], the target named is T2, Substance-K receptor (Homo sapiens, UniProt P21452).
T2 sequence (P21452 whole entry): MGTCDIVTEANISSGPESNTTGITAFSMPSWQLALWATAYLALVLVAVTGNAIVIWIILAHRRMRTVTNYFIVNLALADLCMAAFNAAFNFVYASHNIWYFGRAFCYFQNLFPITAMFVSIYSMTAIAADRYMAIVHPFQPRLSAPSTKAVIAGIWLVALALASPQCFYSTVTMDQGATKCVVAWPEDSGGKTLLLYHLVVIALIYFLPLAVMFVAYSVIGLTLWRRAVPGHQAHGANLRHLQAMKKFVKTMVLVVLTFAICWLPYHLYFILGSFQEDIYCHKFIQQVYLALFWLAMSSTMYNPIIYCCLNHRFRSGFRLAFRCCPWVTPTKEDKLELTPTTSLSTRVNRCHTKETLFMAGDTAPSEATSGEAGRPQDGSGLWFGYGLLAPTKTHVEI
Briefly: Binding affinity against recombinant human tachykinin receptor 2 in CHO cells using [3H]-NKA as radioligand.

Substance-P receptor, sequence (P25103 whole entry): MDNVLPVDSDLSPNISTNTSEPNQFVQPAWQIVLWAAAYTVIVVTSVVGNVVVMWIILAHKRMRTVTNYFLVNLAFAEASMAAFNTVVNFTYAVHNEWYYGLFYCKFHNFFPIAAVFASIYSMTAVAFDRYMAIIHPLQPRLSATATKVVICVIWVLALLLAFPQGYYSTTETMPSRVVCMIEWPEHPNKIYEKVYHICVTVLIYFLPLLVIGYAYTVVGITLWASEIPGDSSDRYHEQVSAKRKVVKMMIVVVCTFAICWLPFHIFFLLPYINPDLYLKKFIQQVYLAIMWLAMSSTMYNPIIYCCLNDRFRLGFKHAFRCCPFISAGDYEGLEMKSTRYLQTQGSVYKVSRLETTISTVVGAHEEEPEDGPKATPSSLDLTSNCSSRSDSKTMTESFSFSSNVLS

For orientation: Ki means a dissociation constant, usually derived from enzyme kinetics or from competition with a known ligand. Consider `CO/N=C(\CN(C)C(=O)c1cc(Cl)cc(Cl)c1)[C@H](CCN1CCC(N2CCCN([C@H](CO)C(N)=O)C2=O)CC1)c1ccc(Cl)c(Cl)c1`, for which the Ki in assay [1] was found to be 0.6 nM; in assay [2], 0.3 nM; in assay [3], 0.5 nM.

With `CCN(C/C(=N\OC)[C@H](CCN1CCC(n2c(=O)n(CCOC)c3ccccc32)CC1)c1ccc(Cl)c(Cl)c1)C(=O)c1cc(Cl)cc(Cl)c1`, the results for the Ki in assay [1], in assay [2] and in assay [3] were 2 nM, 572 nM and 4 nM, respectively.

For the compound `CCN(C/C(=N\OC)[C@H](CCN1CCC(n2c(=O)[nH]c3ccccc32)CC1)c1ccc(Cl)c(Cl)c1)C(=O)c1cc(Cl)cc(Cl)c1`, the Ki in assay [1] was found to be 2.5 nM; in assay [2], 97 nM; in assay [3], 2.6 nM.

Consider `CO/N=C(\CN(C)C(=O)c1cc(Cl)cc(Cl)c1)[C@H](CCN1CCC(n2c(=O)n(C)c3ccccc32)CC1)c1ccc(Cl)c(Cl)c1`, for which, in assay [2], the Ki was determined as 20 nM.

Consider `CO/N=C(\CN(C)C(=O)c1cc(Cl)cc(Cl)c1)[C@H](CCN1CCC(N2CCCN(Cc3nnn[nH]3)C2=O)CC1)c1ccc(Cl)c(Cl)c1`, for which, in assay [2], the Ki was determined as 2 nM.

In the case of `CO/N=C(\CN(C)C(=O)c1cc(Cl)cc(Cl)c1)[C@H](CCN1CCC(N2CCCN(Cc3ccoc3)C2=O)CC1)c1ccc(Cl)c(Cl)c1`, the Ki was found to be 1.1 nM in assay [1], 2.2 nM in assay [2] and 1.1 nM in assay [3].

As for `CCN(C/C(=N\OC)[C@H](CCN1CCC(n2c(=O)n(CC(=O)O)c3ccccc32)CC1)c1ccc(Cl)c(Cl)c1)C(=O)c1cc(Cl)cc(Cl)c1`, the Ki in assay [1] came to 2.4 nM; in assay [2], 176 nM; in assay [3], 5.2 nM.

In the case of `CO/N=C(\CN(CCF)C(=O)c1cc(Cl)cc(Cl)c1)[C@H](CCN1CCC(n2c(O)nc3ccccc32)CC1)c1ccc(Cl)c(Cl)c1`, the Ki in assay [1] stood at 3.2 nM; in assay [2] it was 231 nM; in assay [3] it was 4.9 nM.

As for `CO/N=C(\CN(C)C(=O)c1cc(Cl)cc(Cl)c1)[C@H](CCN1CCC(N2CCCN(CC(C)(C)O)C2=O)CC1)c1ccc(Cl)c(Cl)c1`, in assay [3], the inhibitory constant (Ki) came out at 0.8 nM.

As for `CNC(=O)CN1CCCN(C2CCN(CC[C@@H](/C(CN(C)C(=O)c3cc(Cl)cc(Cl)c3)=N/OC)c3ccc(Cl)c(Cl)c3)CC2)C1=O`, the values for the Ki in assay [1], in assay [2] and in assay [3] were 0.9 nM, 1.3 nM and 1.2 nM, respectively.

As for `CCN(C/C(=N\OC)[C@H](CCN1CCC(n2c(=O)n(Cc3ccccn3)c3ccccc32)CC1)c1ccc(Cl)c(Cl)c1)C(=O)c1cc(Cl)cc(Cl)c1`, the Ki in assay [1] was 2.7 nM; in assay [2], 312 nM; in assay [3], 2.8 nM.

`CO/N=C(\CN(C(=O)c1cc(Cl)cc(Cl)c1)C1CC1)[C@H](CCN1CCC(n2c(O)nc3ccccc32)CC1)c1ccc(Cl)c(Cl)c1`: the Ki is 157 nM in assay [1], 103 nM in assay [2] and 2.5 nM in assay [3].

Turning to `CO/N=C(\CN(CCF)C(=O)c1cc(Cl)cc(Cl)c1)[C@H](CCN1CCC(n2c(=O)n(CC(=O)O)c3ccccc32)CC1)c1ccc(Cl)c(Cl)c1`, the Ki in assay [1] was found to be 1.2 nM; in assay [2], 304 nM; in assay [3], 3.1 nM.

On to `CO/N=C(\CN(C)C(=O)c1cc(Cl)cc(Cl)c1)[C@H](CCN1CCC(N2CCCN(CC(=N)NO)C2=O)CC1)c1ccc(Cl)c(Cl)c1`, for which the Ki was found to be 0.6 nM in assay [1], 0.5 nM in assay [2] and 0.8 nM in assay [3].

As to `CCNC(=O)Cn1c(=O)n(C2CCN(CC[C@@H](/C(CN(CC)C(=O)c3cc(Cl)cc(Cl)c3)=N/OC)c3ccc(Cl)c(Cl)c3)CC2)c2ccccc21`, the Ki in assay [1] came out at 3 nM; in assay [2], 281 nM; in assay [3], 3.6 nM.

With `CO/N=C(\CN(C)C(=O)c1cc(Cl)cc(Cl)c1)[C@H](CCN1CCC(N2CCCN(N3CCOCC3)C2=O)CC1)c1ccc(Cl)c(Cl)c1`, the Ki worked out at 0.8 nM in assay [1], 0.5 nM in assay [2] and 0.9 nM in assay [3].

As to `CO/N=C(\CN(C)C(=O)c1cc(Cl)cc(Cl)c1)[C@H](CCN1CCC(N2CCCN(C(C)(C)C(N)=O)C2=O)CC1)c1ccc(Cl)c(Cl)c1`, the Ki stood at 0.8 nM in assay [1], 0.3 nM in assay [2] and 0.4 nM in assay [3].

`CO/N=C(\CN(C)C(=O)c1cc(Cl)cc(Cl)c1)[C@H](CCN1CCC(n2c(=O)[nH]c3ccccc32)CC1)c1ccc(Cl)c(Cl)c1`: in assay [2], the Ki stood at 10 nM.

Regarding `CCN(C/C(=N\OC)[C@H](CCN1CCC(n2c(=O)n(CC(=O)NCCOC)c3ccccc32)CC1)c1ccc(Cl)c(Cl)c1)C(=O)c1cc(Cl)cc(Cl)c1`, the results for the Ki in assay [1], in assay [2] and in assay [3] were 1.9 nM, 945 nM and 4.1 nM, respectively.

As to `CO/N=C(\CN(C)C(=O)c1cc(Cl)cc(Cl)c1)[C@H](CCN1CCC(N2CCCN(CC(=O)OCc3ccccc3)C2=O)CC1)c1ccc(Cl)c(Cl)c1`, the Ki in assay [1] turned out to be 1 nM; in assay [2], 11.8 nM; in assay [3], 1.2 nM.

As to `CO/N=C(\CN(C)C(=O)c1cc(Cl)cc(Cl)c1)[C@H](CCN1CCC(N2CCCN(C)C2=O)CC1)c1ccc(Cl)c(Cl)c1`, the Ki amounted to 0.4 nM in assay [1], 0.8 nM in assay [2] and 0.7 nM in assay [3].

Turning to `CCOC(=O)[C@@H](Cc1ccc(O)cc1)N1CCCN(C2CCN(CC[C@@H](/C(CN(C)C(=O)c3cc(Cl)cc(Cl)c3)=N/OC)c3ccc(Cl)c(Cl)c3)CC2)C1=O`, the values for the Ki in assay [1], in assay [2] and in assay [3] were 1.6 nM, 10.9 nM and 1.2 nM, respectively.

As for `CCN(C/C(=N\OC)[C@H](CCN1CCC(n2c(=O)n(CC#N)c3ccccc32)CC1)c1ccc(Cl)c(Cl)c1)C(=O)c1cc(Cl)cc(Cl)c1`, the Ki in assay [1] stood at 2.3 nM; in assay [2] it was 674 nM; in assay [3], 2.5 nM.

Take `CO/N=C(\CN(C)C(=O)c1cc(Cl)cc(Cl)c1)[C@H](CCN1CCC(N2CCCN(C(C)C)C2=O)CC1)c1ccc(Cl)c(Cl)c1`: the inhibitory constant (Ki) in assay [1] was found to be 0.9 nM; in assay [2], 0.6 nM; in assay [3] it was 0.8 nM.

With `CCN(C/C(=N\OC)[C@H](CCN1CCC(n2c(=O)n(CC(N)=O)c3ccccc32)CC1)c1ccc(Cl)c(Cl)c1)C(=O)c1cc(Cl)cc(Cl)c1`, the Ki was 2.4 nM in assay [1], 167 nM in assay [2] and 4.8 nM in assay [3].

Consider `CO/N=C(\CN(C)C(=O)c1cc(Cl)cc(Cl)c1)[C@H](CCN1CCC(N2CCCN(Cc3ccccn3)C2=O)CC1)c1ccc(Cl)c(Cl)c1`, for which the Ki was found to be 0.7 nM in assay [1], 0.8 nM in assay [2] and 0.7 nM in assay [3].

In the case of `CO/N=C(\CN(C)C(=O)c1cc(Cl)cc(Cl)c1)[C@H](CCN1CCC(N2CCCN(Cc3ccsc3)C2=O)CC1)c1ccc(Cl)c(Cl)c1`, the inhibition constant (Ki) in assay [1] came out at 2.4 nM; in assay [2] it was 3.2 nM; in assay [3], 1.2 nM.

`CO/N=C(\CN(C)C(=O)c1cc(Cl)cc(Cl)c1)[C@H](CCN1CCC(N2CCCN(c3ccccn3)C2=O)CC1)c1ccc(Cl)c(Cl)c1`: the Ki in assay [1] stood at 1.9 nM; in assay [2] it was 0.5 nM; in assay [3] it was 0.5 nM.

Consider `CNC(=O)C[C@H]1CCCN(C2CCN(CC[C@@H](/C(CN(C)C(=O)c3cc(Cl)cc(Cl)c3)=N/OC)c3ccc(Cl)c(Cl)c3)CC2)C1=O`, for which the inhibition constant (Ki) is 1.3 nM in assay [1], 0.3 nM in assay [2] and 0.4 nM in assay [3].

`CO/N=C(\CN(C)C(=O)c1cc(Cl)cc(Cl)c1)[C@H](CCN1CCC(n2c(=O)n(CC(=O)O)c3ccccc32)CC1)c1ccc(Cl)c(Cl)c1`: the values for the Ki in assay [1], in assay [2] and in assay [3] were 1.3 nM, 11 nM and 1.7 nM, respectively.

In the case of `CO/N=C(\CN(C)C(=O)c1cc(Cl)cc(Cl)c1)[C@H](CCN1CCC(N2CCCN(O)C2=O)CC1)c1ccc(Cl)c(Cl)c1`, the Ki stood at 1 nM in assay [1], 0.7 nM in assay [2] and 0.7 nM in assay [3].

In the case of `CO/N=C(\CN(C)C(=O)c1cc(Cl)cc(Cl)c1)[C@H](CCN1CCC(N2CCCN(CC(N)=O)C2=O)CC1)c1ccc(Cl)c(Cl)c1`, the results for the Ki in assay [1], in assay [2] and in assay [3] were 0.3 nM, 0.4 nM and 0.2 nM, respectively.

For the compound `CO/N=C(\CN(C)C(=O)c1cc(Cl)cc(Cl)c1)[C@H](CCN1CCC(n2c(=O)n(CC(=O)OC)c3ccccc32)CC1)c1ccc(Cl)c(Cl)c1`, the results for the Ki in assay [1], in assay [2] and in assay [3] were 1.3 nM, 29 nM and 1.8 nM, respectively.

Regarding `CO/N=C(\CN(C)C(=O)c1cc(Cl)cc(Cl)c1)[C@H](CCN1CCC(N2CCCN(CCNS(C)(=O)=O)C2=O)CC1)c1ccc(Cl)c(Cl)c1`, the figures for the Ki in assay [1], in assay [2] and in assay [3] were 0.6 nM, 0.4 nM and 0.5 nM, respectively.
